Test results: ChEMBL document CHEMBL1208724, “A new group of oxime carbamates as reversible inhibitors of fatty acid amide hydrolase” (Bioorg Med Chem Lett, 2010)

Molecular target: T1, Fatty-acid amide hydrolase 1 (Mus musculus, UniProt O08914)
T1 sequence (O08914 whole entry): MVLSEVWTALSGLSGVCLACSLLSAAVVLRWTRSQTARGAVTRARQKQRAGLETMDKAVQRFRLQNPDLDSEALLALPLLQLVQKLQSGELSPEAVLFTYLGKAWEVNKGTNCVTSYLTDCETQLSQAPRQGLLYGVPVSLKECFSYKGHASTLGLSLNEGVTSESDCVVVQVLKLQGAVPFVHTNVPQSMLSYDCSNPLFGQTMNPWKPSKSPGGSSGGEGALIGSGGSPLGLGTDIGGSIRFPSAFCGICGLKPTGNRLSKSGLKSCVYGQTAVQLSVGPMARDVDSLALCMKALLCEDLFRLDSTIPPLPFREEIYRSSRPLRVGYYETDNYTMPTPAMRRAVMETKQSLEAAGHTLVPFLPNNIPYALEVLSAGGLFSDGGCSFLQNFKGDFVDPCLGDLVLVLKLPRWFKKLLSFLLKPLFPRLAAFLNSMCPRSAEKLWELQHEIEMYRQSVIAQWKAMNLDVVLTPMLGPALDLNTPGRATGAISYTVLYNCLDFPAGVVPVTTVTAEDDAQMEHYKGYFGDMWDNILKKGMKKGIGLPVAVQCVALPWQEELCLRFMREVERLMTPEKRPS
Test: Inhibition of mouse brain FAAH assessed as conversion of [3H-ethanolamine]AEA to [3H]ethanolamine by scintillation counting

Row | Compound | IC50 [nM]
1 | C/C(=N\OC(=O)Nc1ccccc1)c1cccc(-c2cccc(C(=O)NC(=O)Nc3ccccc3)c2)c1 | > 25000
2 | C/C(=N\OC(=O)N(c1ccccc1)c1ccccc1)c1cccc(-c2ccccc2)c1 | > 50000

Second part, the compound after the results:

Row | IC50 [nM] | Compound
3 | 112 | C/C(=N\OC(=O)N1CCCCC1)c1cccc(-c2cccs2)c1
4 | 69 | C/C(=N\OC(=O)Nc1ccccc1)c1cccc(-c2ccccc2)c1
5 | > 1000 | C/C(=N\OC(=O)Nc1cccc2ccccc12)c1ccc(C2CCCCC2)cc1
